Holding throughout (format): in vivo
One data set relates to Setaria viridis (SETVI). Kind of data set: C. Herbicidal pre-emergence efficacy, SETVI. The following applies: scored after about 3 weeks. Put shortly:
(§1)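 Pre-emergence test: formulated compounds sprayed as aqueous suspension or emulsion with 0.5% additive at 600 l/ha onto soil covering sown seeds, at rates corresponding to 320 g/ha or less. After about 3 weeks in greenhouse, efficacy scored visually as percent versus untreated controls (100% = plants dead).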

The subject of a further data set is Lolium rigidum (LOLRI). Kind of data set: C. Herbicidal pre-emergence efficacy, LOLRI. The following applies: 320 g/ha, scored after about 3 weeks. In outline: as §1
In another data set the test system is Kochia scoparia (KCHSC). In words: B. Herbicidal post-emergence efficacy, KCHSC. The settings on record: for Post-emergence efficacy against KCHSC in %: rated visually after about 3 weeks; for Post-emergence efficacy against KCHSC: 1280 g/ha. In outline: (§2)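 First, seeds were sown in sandy loam and grown 2 to 3 weeks under controlled greenhouse conditions. Next, foliage at the one-leaf stage received the formulated compound in water with 0.5% additive (600 L/ha, 1280 g/ha or less). Finally, damage was rated visually after about 3 weeks against untreated plants.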

In data set [1] the test system is Viola tricolor (VIOTR). In words: C. Herbicidal pre-emergence efficacy, VIOTR. Put shortly: as §1
Data set [2] deals with Viola tricolor (VIOTR). Kind of data set: E. Herbicidal post-emergence efficacy, VIOTR. In outline:
(§3)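 Greenhouse post-emergence spray, one-leaf stage (2–3 wk after sowing, sandy loam); WP/EC formulation, aqueous + 0.5% additive, 600 l/ha water; rates 320 g/ha or less. Visual rating ~3 wk later vs untreated; 0% = control-like, 100% = dead.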

The next data set deals with Poa annua (POAAN). In words: B. Herbicidal post-emergence efficacy, POAAN. In outline: as §2
Data set [3] relates to Triticum aestivum (TRZAS). Kind of data set: F. Post-emergence effect on useful plants, TRZAS. The settings on record: useful plant. Put shortly: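 Crop plants grown in sandy loam in the greenhouse were sprayed at the one-leaf stage, 2-3 weeks after sowing, with WP or EC formulations plus 0.5% additive at 600 l/ha water. Damage was scored visually after about 3 weeks against untreated controls (0% = like control, 100% = dead).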

For data set [4], the system named is Polygonum convolvulus (POLCO). In words: E. Herbicidal post-emergence efficacy, POLCO. In outline: as §3
Data set [5] deals with Alopecurus myosuroides (ALOMY). Kind of data set: C. Herbicidal pre-emergence efficacy, ALOMY. The following applies: 320 g/ha, scored after about 3 weeks. In outline:
as §1

Consider `O=S(=O)(CCC(F)=C(F)F)Oc1c(Cl)cccc1Oc1ncc(Cl)cn1` [Example I-73], for which the “Pre-emergence efficacy against SETVI” value in the data set with Setaria viridis (SETVI) (320 g/ha) was found to be 100%. The “Pre-emergence efficacy against LOLRI” value with Lolium rigidum (LOLRI) is given as 80%. In addition, the “Post-emergence efficacy against KCHSC in %” value in the data set on Kochia scoparia (KCHSC) (80 g/ha) is reported as 90%; in the data set on Kochia scoparia (KCHSC) (320 g/ha), 100%. In the data set with Kochia scoparia (KCHSC), the “Post-emergence efficacy against KCHSC” value was 100%. In addition, the “Pre-emergence efficacy against VIOTR in %” value with Viola tricolor (VIOTR) [1] (application rate 320 g/ha) stood at 100%. Also, the “Post-emergence efficacy against VIOTR in %” value amounted to 90% in the data set on Viola tricolor (VIOTR) [2] (application rate 80 g/ha) and 100% in the data set on Viola tricolor (VIOTR) [2] (application rate 320 g/ha). For the same compound, the “Post-emergence efficacy against POAAN” value in the data set on Poa annua (POAAN) (1280 g/ha) is recorded as 100%. Also, the entries for the “Post-emergence efficacy against TRZAS in %” value in [3] (application rate 80 g/ha) and in data set [3] (application rate 320 g/ha) were 0% and 20%, respectively.
Turning to `CCCS(=O)(=O)Oc1ccccc1Oc1ncc(Cl)cn1` [Example I-3], the “Pre-emergence efficacy against SETVI” value in the data set with Setaria viridis (SETVI) (80 g/ha) and in the data set with Setaria viridis (SETVI) (320 g/ha) was 100% in each case. In addition, the “Pre-emergence efficacy against LOLRI” value in the data set on Lolium rigidum (LOLRI) came out at 90%. Also, in data set [4] (application rate 320 g/ha), the “Post-emergence efficacy against POLCO in %” value is 90%. The “Post-emergence efficacy against KCHSC in %” value with Kochia scoparia (KCHSC) (80 g/ha) and with Kochia scoparia (KCHSC) (320 g/ha) was 90% in each case. Besides, the “Post-emergence efficacy against KCHSC” value in the data set with Kochia scoparia (KCHSC) turned out to be 90%. Also, the “Pre-emergence efficacy against VIOTR in %” value in the data set on Viola tricolor (VIOTR) [1] (application rate 80 g/ha) came to 90%; in the data set on Viola tricolor (VIOTR) [1] (application rate 320 g/ha), 100%. Besides, the “Pre-emergence efficacy against ALOMY” value in data set [5] was 100%. Also, the “Post-emergence efficacy against POAAN” value with Poa annua (POAAN) (1280 g/ha) stood at 90%. For the same compound, the “Post-emergence efficacy against TRZAS in %” value in data set [3] (application rate 80 g/ha) is given as 0%; in [3] (application rate 320 g/ha), 10%.
`O=S(=O)(CCCC(F)(F)F)Oc1c(Cl)cccc1Oc1ncc(Br)cn1` [Example I-34]: the “Pre-emergence efficacy against SETVI” value with Setaria viridis (SETVI) (80 g/ha) is 80%; with Setaria viridis (SETVI) (320 g/ha), 100%. In addition, the “Post-emergence efficacy against POLCO in %” value in data set [4] (application rate 320 g/ha) is recorded as 100%. Moreover, the “Post-emergence efficacy against KCHSC in %” value in the data set with Kochia scoparia (KCHSC) (80 g/ha) and in the data set on Kochia scoparia (KCHSC) (320 g/ha) was 100% throughout. Further, the “Post-emergence efficacy against KCHSC” value in the data set with Kochia scoparia (KCHSC) was found to be 100%. The “Pre-emergence efficacy against VIOTR in %” value in the data set on Viola tricolor (VIOTR) [1] (application rate 80 g/ha) and with Viola tricolor (VIOTR) [1] (application rate 320 g/ha) was 100% each time. In data set [5], the “Pre-emergence efficacy against ALOMY” value turned out to be 80%. The “Post-emergence efficacy against VIOTR in %” value with Viola tricolor (VIOTR) [2] (application rate 80 g/ha) and in the data set on Viola tricolor (VIOTR) [2] (application rate 320 g/ha) was 100% in each case. Moreover, the “Post-emergence efficacy against POAAN” value with Poa annua (POAAN) (320 g/ha) and in the data set with Poa annua (POAAN) (1280 g/ha) was 100% each time. Further, the “Post-emergence efficacy against TRZAS in %” value in data set [3] (application rate 80 g/ha) was 0%; in data set [3] (application rate 320 g/ha), 20%.
For the compound `O=S(=O)(CCl)Oc1ccccc1Oc1ncc(Cl)cn1` [Example I-9], the “Pre-emergence efficacy against SETVI” value with Setaria viridis (SETVI) (320 g/ha) is reported as 90%. Also, in data set [4] (application rate 320 g/ha), the “Post-emergence efficacy against POLCO in %” value stood at 90%. The “Post-emergence efficacy against KCHSC” value in the data set on Kochia scoparia (KCHSC) came to 90%. The “Pre-emergence efficacy against VIOTR in %” value in the data set on Viola tricolor (VIOTR) [1] (application rate 80 g/ha) was determined as 90%; with Viola tricolor (VIOTR) [1] (application rate 320 g/ha) it was 100%. Also, the “Pre-emergence efficacy against ALOMY” value in data set [5] turned out to be 80%. For the same compound, the “Post-emergence efficacy against VIOTR in %” value in the data set on Viola tricolor (VIOTR) [2] (application rate 320 g/ha) is given as 80%. Further, in the data set on Poa annua (POAAN) (1280 g/ha), the “Post-emergence efficacy against POAAN” value stood at 90%. In addition, in data set [3] (application rate 80 g/ha), the “Post-emergence efficacy against TRZAS in %” value was determined as 20%.
For the compound `N#Cc1cccc(Oc2ncc(Cl)cn2)c1OS(=O)(=O)CCCC(F)(F)F` [Example I-81], the “Pre-emergence efficacy against SETVI” value in the data set on Setaria viridis (SETVI) (80 g/ha) and with Setaria viridis (SETVI) (320 g/ha) was 100% in each case. Also, the “Pre-emergence efficacy against LOLRI” value in the data set on Lolium rigidum (LOLRI) is listed as 90%. Also, the “Post-emergence efficacy against POLCO in %” value in [4] (application rate 80 g/ha) was 90%; in data set [4] (application rate 320 g/ha), 100%. Moreover, the “Pre-emergence efficacy against VIOTR in %” value in the data set with Viola tricolor (VIOTR) [1] (application rate 80 g/ha) and in the data set with Viola tricolor (VIOTR) [1] (application rate 320 g/ha) was 100% in each case. In addition, in data set [5], the “Pre-emergence efficacy against ALOMY” value is listed as 90%. In addition, the “Post-emergence efficacy against VIOTR in %” value in the data set on Viola tricolor (VIOTR) [2] (application rate 80 g/ha) and with Viola tricolor (VIOTR) [2] (application rate 320 g/ha) was 100% each time. For the same compound, the “Post-emergence efficacy against TRZAS in %” value in data set [3] (application rate 80 g/ha) came out at 0%.
Take `O=S(=O)(CCC(F)=C(F)F)Oc1c(F)cccc1Oc1ncc(Cl)cn1` [Example I-70]: the “Pre-emergence efficacy against SETVI” value in the data set with Setaria viridis (SETVI) (80 g/ha) came out at 90%; in the data set with Setaria viridis (SETVI) (320 g/ha), 100%. For the same compound, in the data set with Lolium rigidum (LOLRI), the “Pre-emergence efficacy against LOLRI” value was found to be 100%. The “Post-emergence efficacy against POLCO in %” value in data set [4] (application rate 320 g/ha) came to 100%. For the same compound, the “Pre-emergence efficacy against VIOTR in %” value in the data set with Viola tricolor (VIOTR) [1] (application rate 80 g/ha) and with Viola tricolor (VIOTR) [1] (application rate 320 g/ha) was 100% throughout. Besides, the “Pre-emergence efficacy against ALOMY” value in data set [5] is 100%. The “Post-emergence efficacy against VIOTR in %” value in the data set on Viola tricolor (VIOTR) [2] (application rate 80 g/ha) and in the data set on Viola tricolor (VIOTR) [2] (application rate 320 g/ha) was 100% in each case. In data set [3] (application rate 80 g/ha), the “Post-emergence efficacy against TRZAS in %” value is on record as 20%.

(Values after patent US20240174618A1, “SUBSTITUTED (2-HETEROARYLOXYPHENYL)SULFONATES, SALTS THEREOF AND THEIR USE AS HERBICIDAL AGENTS” (Bayer Aktiengesellschaft, priority 2021, published 2024).)
